Assay results reported in ChEMBL document CHEMBL5352472, “Mode of action of p-quinone derivatives with trypanocidal activity studied by experimental and in silico models” (Eur J Med Chem, 2023).

Columns and labels:
Trypanosoma brucei [1] = experiment: Trypanocidal activity against blood stream form Trypanosoma brucei 427 expressing red-shifted luciferase gene measured after 24 hrs by microplate luminometer analysis; assay type: functional, organism-based; conditions: Trypanosoma brucei, 427, 24 h
[2] = Cytotoxicity against mouse J774 cells after 24 hrs by WST-1 assay; assay type: toxicity, cell-based
[3] = Selectivity index, ratio of CC50 for cytotoxicity against mouse J774 cells to EC50 for trypanocidal activity against blood stream form Trypanosoma brucei 427; assay type: toxicity, cell-based; conditions: read-out: Ratio CC50/EC50
J774 [4] = experiment: Cytotoxicity against mouse J774 cells at 10 uM after 24 hrs by WST-1 assay relative to control; assay type: toxicity, cell-based; conditions: j774, 24 h
Trypanosoma brucei [5] = experiment: (§1) Redox activity against blood stream form Trypanosoma brucei 427 expressing redox-sensitive green fluorescent protein fused human glutaredoxin assessed as biosensor oxidation by measuring fluorescence at 2 times EC50 incubated for 1 hr by propidium iodide staining based flow cytometric analysis relative to control; assay type: functional
J774 [6] = experiment: Cytotoxicity against mouse J774 cells at 50 uM after 24 hrs by WST-1 assay relative to control; assay type: toxicity, cell-based; conditions: j774, 24 h
Trypanosoma brucei [7] = experiment: as §1, with “at 1” for “at 2”; assay type: functional
Trypanosoma cruzi [8] = experiment: Trypanocidal activity against Trypanosoma cruzi DM28c amastigotes expressing red-shifted luciferase gene infected in african green monkey Vero cells incubated for 72 hrs by microplate luminometer analysis; assay type: functional, organism-based
[9] = Selectivity index, ratio of CC50 for cytotoxicity against mouse J774 cells to EC50 for trypanocidal activity against Trypanosoma cruzi DM28c amastigotes; assay type: toxicity, cell-based; conditions: read-out: Ratio CC50/EC50
Leishmania infantum [10] = experiment: Antileishmanial activity against Leishmania infantum MHOM/MA/67/ITMAP263 promastigotes expressing red-shifted luciferase gene infected in mouse J774 cells incubated at 10 uM for 24 hrs by microplate luminometer analysis relative to control; assay type: functional
Trypanosoma cruzi [11] = experiment: Trypanocidal activity against Trypanosoma cruzi DM28c amastigotes expressing red-shifted luciferase gene infected in african green monkey Vero cells incubated at 10 uM for 72 hrs by microplate luminometer analysis relative to control; assay type: functional
Leishmania infantum [12] = experiment: Antileishmanial activity against Leishmania infantum MHOM/MA/67/ITMAP263 promastigotes expressing red-shifted luciferase gene infected in mouse J774 cells incubated at 20 uM for 24 hrs by microplate luminometer analysis relative to control; assay type: functional
Leishmania infantum [13] = experiment: Antileishmanial activity against Leishmania infantum MHOM/MA/67/ITMAP263 promastigotes expressing red-shifted luciferase gene infected in mouse J774 cells incubated for 24 hrs by microplate luminometer analysis; assay type: functional, organism-based; conditions: MHOM/MA/67/ITMAP263, J774, 24 h
[14] = Selectivity index, ratio of CC50 for cytotoxicity against mouse J774 cells to EC50 for trypanocidal activity against Leishmania infantum MHOM/MA/67/ITMAP263 promastigotes; assay type: toxicity, cell-based; conditions: read-out: Ratio CC50/EC50

O=C1C(Nc2ccccc2)=C(Br)C(=O)c2oc(-c3ccccc3)nc21
EC50 (Trypanosoma brucei [1]): 1900 nM | CC50 at 24 h [2]: < 10 µM | selectivity ratio [3]: < 5 | Activity (J774 [4]): 0.5% | Activity (Trypanosoma brucei [5]): 95.87%

O=C1C=C(Br)C(=O)c2oc(-c3ccccc3)nc21
EC50 (Trypanosoma brucei [1]): 1600 nM | CC50 at 24 h [2]: < 10 µM | selectivity ratio [3]: < 6 | Activity (J774 [4]): 10% | Activity (Trypanosoma brucei [5]): 20.95%

O=C1C=C(Oc2ccc(CO)cc2)C(=O)c2ccccc21
EC50 (Trypanosoma brucei [1]): 4600 nM | CC50 at 24 h [2]: ~50 µM | selectivity ratio [3]: ~11 | Activity (J774 [6]): 49% | Activity (Trypanosoma brucei [5]): 87.33%

CC(C)(C)c1ccc(OC2=CC(=O)c3ccccc3C2=O)cc1
EC50 (Trypanosoma brucei [1]): 5500 nM | Activity (Trypanosoma brucei [7]): 81.7% | CC50 at 24 h [2]: < 50 µM | selectivity ratio [3]: < 9 | Activity (J774 [6]): 24%

O=C1C=C(Oc2ccccc2)C(=O)c2sc(-c3ccccc3)nc21
EC50 (Trypanosoma brucei [1]): 1800 nM | Activity (Trypanosoma brucei [7]): 95.51% | CC50 at 24 h [2]: < 10 µM | selectivity ratio [3]: < 6 | Activity (J774 [4]): 40%

O=C1C(Nc2ccccc2)=C(Br)C(=O)c2oc(-c3ccccc3)cc21
EC50 (Trypanosoma brucei [1]): 900 nM | Activity (Trypanosoma brucei [7]): 71.31% | CC50 at 24 h [2]: 57 µM | selectivity ratio [3]: 63 | EC50 (Trypanosoma cruzi [8]): 800 nM | selectivity ratio [9]: 71 | Activity (Leishmania infantum [10]): 102%

O=C1C=CC(=O)c2sc(-c3ccccc3)nc21
EC50 (Trypanosoma brucei [1]): 1300 nM | CC50 at 24 h [2]: < 10 µM | selectivity ratio [3]: < 8 | Activity (J774 [4]): 0% | Activity (Trypanosoma brucei [5]): 99.42%

O=C1C=C(Br)C(=O)c2oc(-c3ccccc3)cc21
EC50 (Trypanosoma brucei [1]): 38000 nM | Activity (Trypanosoma brucei [7]): 99.25% | CC50 at 24 h [2]: 59 µM | selectivity ratio [3]: 2

O=C1C=CC(=O)c2oc(-c3ccccc3)cc21
EC50 (Trypanosoma brucei [1]): 2700 nM | CC50 at 24 h [2]: 118 µM | selectivity ratio [3]: 44 | Activity (Trypanosoma cruzi [11]): 88% | Activity (Leishmania infantum [10]): 129% | Activity (Trypanosoma brucei [5]): 95.33%

COc1ccc(OC2=CC(=O)c3nc(-c4ccccc4)sc3C2=O)cc1
EC50 (Trypanosoma brucei [1]): 1800 nM | CC50 at 24 h [2]: 78 µM | selectivity ratio [3]: 43 | EC50 (Trypanosoma cruzi [8]): 1100 nM | selectivity ratio [9]: 71 | Activity (Leishmania infantum [12]): 90% | Activity (Trypanosoma brucei [5]): 89.22%

O=C1C=CC(=O)c2oc(-c3ccccc3)nc21
EC50 (Trypanosoma brucei [1]): 2300 nM | CC50 at 24 h [2]: < 10 µM | selectivity ratio [3]: < 4 | Activity (J774 [4]): 21% | Activity (Trypanosoma brucei [5]): 100%

O=C1C=C(Oc2ccccc2)C(=O)c2oc(-c3ccccc3)cc21
EC50 (Trypanosoma brucei [1]): 2900 nM | Activity (Trypanosoma brucei [7]): 85.4% | CC50 at 24 h [2]: 37 µM | selectivity ratio [3]: 13

O=C1C(Nc2ccccc2)=C(Br)C(=O)c2sc(-c3ccccc3)nc21
EC50 (Trypanosoma brucei [1]): 500 nM | CC50 at 24 h [2]: < 10 µM | selectivity ratio [3]: < 22 | Activity (J774 [4]): 117% | Activity (Trypanosoma brucei [5]): 85.67%

O=C1C=C(Oc2ccccc2)C(=O)c2oc(-c3ccccc3)nc21
EC50 (Trypanosoma brucei [1]): 3300 nM | CC50 at 24 h [2]: 46 µM | selectivity ratio [3]: 14 | Activity (Trypanosoma brucei [5]): 94.92%

O=C1C=C(Br)C(=O)c2sc(-c3ccccc3)nc21
EC50 (Trypanosoma brucei [1]): 1500 nM | CC50 at 24 h [2]: 61 µM | selectivity ratio [3]: 40 | Activity (Trypanosoma cruzi [11]): 78% | Activity (Leishmania infantum [12]): 91% | Activity (Trypanosoma brucei [5]): 96.99%

O=C1C=C(Oc2ccc3cc(O)ccc3c2)C(=O)c2ccccc21
EC50 (Trypanosoma brucei [1]): 4300 nM | CC50 at 24 h [2]: ~50 µM | selectivity ratio [3]: ~14 | Activity (J774 [6]): 63% | Activity (Trypanosoma brucei [5]): 40.54%

COc1ccc2cc(OC3=CC(=O)c4ccccc4C3=O)ccc2c1
EC50 (Trypanosoma brucei [1]): 5200 nM | CC50 at 24 h [2]: ~50 µM | selectivity ratio [3]: ~10 | Activity (J774 [6]): 57% | Activity (Trypanosoma brucei [5]): 59.07%

O=C1C=C(Oc2ccc3cccnc3c2)C(=O)c2ccccc21
EC50 (Trypanosoma brucei [1]): 3800 nM | CC50 at 24 h [2]: < 50 µM | selectivity ratio [3]: < 13 | Activity (J774 [6]): 37% | Activity (Trypanosoma brucei [5]): 7.92%

O=C1C=C(Oc2ccc(F)cc2)C(=O)c2sc(-c3ccccc3)nc21
EC50 (Trypanosoma brucei [1]): 5000 nM | CC50 at 24 h [2]: < 10 µM | selectivity ratio [3]: < 2 | Activity (J774 [4]): 5% | Activity (Trypanosoma brucei [5]): 92.06%

C[C@@H]1[C@H](O)[C@@H](C)/C=C/C=C/C=C/C=C/C=C/C=C/C=C/[C@H](O[C@@H]2O[C@H](C)[C@@H](O)[C@H](N)[C@@H]2O)C[C@@H]2O[C@](O)(C[C@@H](O)C[C@@H](O)[C@H](O)CC[C@@H](O)C[C@@H](O)CC(=O)O[C@H]1C)C[C@H](O)[C@H]2C(=O)O [AMPHOTERICIN B]
CC50 at 24 h [2]: 9 µM | EC50 (Leishmania infantum [13]): 0.035 µM | selectivity ratio [14]: 257

CCCCCCCCCCCCCCCCOP(=O)([O-])OCC[N+](C)(C)C [MILTEFOSINE]
CC50 at 24 h [2]: 50 µM | EC50 (Leishmania infantum [13]): 38.2 µM | selectivity ratio [14]: ~1

CC1CS(=O)(=O)CCN1/N=C/c1ccc([N+](=O)[O-])o1 (stereo not given) [NIFURTIMOX]
EC50 (Trypanosoma brucei [1]): 5300 nM | CC50 at 24 h [2]: 100 µM | selectivity ratio [3]: 19 | EC50 (Trypanosoma cruzi [8]): 700 nM | selectivity ratio [9]: 142 | Activity (Leishmania infantum [12]): 137%
